# In patent publication US20030203373A1 (priority 2002, published 2003):
# Where “and” joins values, the source holds several entries; their conditions need not be identical. Equal entries are not always repeated. Where two headings read alike, the source gives them in different places. Square brackets hold non-standard residues; d marks the D form. Peptide text beside a SMILES is read from it. pGlu = O=C1CC[C@@H](C(=O)O)N1
# Target: T1, ACE from pig kidney (Sus scrofa, UniProt F1RRW5)
# T1 construct: 1 mU ACE from pig kidney (EC 3.4.15.1 (Sigma)); purchased Sigma; host or cells: pig kidney (tissue-derived enzyme)
# T1 sequence (F1RRW5 34-1309): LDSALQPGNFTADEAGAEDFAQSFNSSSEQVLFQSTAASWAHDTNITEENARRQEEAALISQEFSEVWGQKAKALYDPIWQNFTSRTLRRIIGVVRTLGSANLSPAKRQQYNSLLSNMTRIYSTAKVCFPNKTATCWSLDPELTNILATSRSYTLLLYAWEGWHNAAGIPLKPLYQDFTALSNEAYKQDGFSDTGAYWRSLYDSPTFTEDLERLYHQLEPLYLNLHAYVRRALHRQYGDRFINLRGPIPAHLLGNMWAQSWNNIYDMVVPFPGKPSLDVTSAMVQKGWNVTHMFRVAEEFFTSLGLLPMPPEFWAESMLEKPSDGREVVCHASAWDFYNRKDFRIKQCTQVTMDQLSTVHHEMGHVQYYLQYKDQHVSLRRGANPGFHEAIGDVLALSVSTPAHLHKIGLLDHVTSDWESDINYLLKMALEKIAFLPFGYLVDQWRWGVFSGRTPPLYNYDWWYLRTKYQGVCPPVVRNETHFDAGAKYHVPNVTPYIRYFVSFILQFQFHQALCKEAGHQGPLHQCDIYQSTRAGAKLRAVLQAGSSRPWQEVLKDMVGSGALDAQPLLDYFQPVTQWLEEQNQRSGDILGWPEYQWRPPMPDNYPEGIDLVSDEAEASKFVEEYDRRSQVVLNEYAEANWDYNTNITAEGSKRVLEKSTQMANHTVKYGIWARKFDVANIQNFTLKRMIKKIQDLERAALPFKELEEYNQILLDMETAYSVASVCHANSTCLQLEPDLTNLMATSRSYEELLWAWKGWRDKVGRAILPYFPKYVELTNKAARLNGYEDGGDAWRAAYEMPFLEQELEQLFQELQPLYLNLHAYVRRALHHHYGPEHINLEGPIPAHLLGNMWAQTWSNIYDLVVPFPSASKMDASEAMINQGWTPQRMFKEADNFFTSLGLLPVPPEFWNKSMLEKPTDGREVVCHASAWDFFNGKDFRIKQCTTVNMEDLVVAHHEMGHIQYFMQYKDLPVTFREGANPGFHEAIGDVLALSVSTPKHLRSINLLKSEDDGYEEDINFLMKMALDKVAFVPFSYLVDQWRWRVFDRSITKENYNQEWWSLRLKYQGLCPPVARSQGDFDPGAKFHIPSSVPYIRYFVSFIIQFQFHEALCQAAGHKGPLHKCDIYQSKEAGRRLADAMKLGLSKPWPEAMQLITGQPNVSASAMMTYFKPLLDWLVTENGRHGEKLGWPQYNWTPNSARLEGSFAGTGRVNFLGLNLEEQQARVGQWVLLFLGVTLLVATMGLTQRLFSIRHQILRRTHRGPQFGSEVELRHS
# Assay: biochemical
# Type: biochemical
# From the text: These peptides were investigated for their inhibitory effect using an in vitro-ACE-inhibitor-assay with an angiotensin-converting-enzyme derived from pig kidney. Hippuryl-histidyl-leucin was used as a substrate. […] A concrete experimental description is given below.
# The principle of the ACE-inhibition-assay was established by Chejung, H. S., Cushman, D. W.: “Inhibition of homogenous angiotensin converting enzyme of rabbit lung by synthetic venom peptides of Bothrops jararaca.” in Biochimica et Biophysica Acta 293, 451-563 (1973).
# The assay was performed in 96 well HTRF-plates (Packard). The concentrations used for each well were:
# 1 mU ACE from pig kidney (EC 3.4.15.1 (Sigma)) in 30 μl of assay buffer (25 mM HEPES; 0,3 M NaCl, pH 8,2) and 20 μl inhibitor dissolved in assay buffer (0,35-200 μM). The reaction was started by adding 50 μl of 2 mM hippuryl-histidyl-leucin (Sigma) in assay buffer. The reaction was performed at room temperature (22° C.) for 30 minutes and terminated by adding 50 μl of 2 M NaOH. Afterwards 50 μl of 0,5% ortho-phtalaldehyd (Sigma) in methanol were added, 5 minutes later followed by 50 μl of 2,5 M HCl-solution to stabilize the developed fluorescence product.
# The results were used to calculate the % inhibition. The IC50-values were determined graphically from a curve showing the dose-reaction ratio.
# In order to minimize errors due to time-dependent differences, all pipetting steps were performed in a precise time schedule.
# [1] = inhibitor 0.78125 μM, replicates A-D
# [2] = inhibitor 1.5625 μM, replicates A-D
# [3] = inhibitor 3.125 μM, replicates A-D
# [4] = inhibitor 6.25 μM, replicates A-D
# [5] = inhibitor 12.5 μM, replicates A-D
# [6] = inhibitor 25 μM, replicates A-D
# [7] = inhibitor 50 μM, replicates A-D
# [8] = inhibitor 100 μM, replicates A-D
# [9] = inhibitor 200 μM, replicates A-D
compound,measurement,setting,value
"CC[C@H](C)[C@H](NC(=O)[C@H](CCC(N)=O)NC(=O)[C@@H]1CCCN1C(=O)[C@H](CCCNC(=N)N)NC(=O)[C@@H]1CCCN1C(=O)[C@H](Cc1c[nH]c2ccccc12)NC(=O)[C@@H]1CCC(=O)N1)C(=O)N1CCC[C@H]1C(=O)N1CCC[C@H]1C(=O)O [BPP9a, reference compound]",IC50,,0.097 µM
same,fluorescence reading (ACE Inhibitor Assay),"inhibitor 0.0097 μM, replicates A-D",710140 and 732003 and 790803 and 704452
same,% inhibition (ACE Inhibitor Assay),"inhibitor 0.0097 μM, replicates A-D, 0.0097 µM",17.32% and 14.76% and 7.86% and 17.99%
same,fluorescence reading (ACE Inhibitor Assay),"inhibitor 0.0195 μM, replicates A-D",651703 and 661931 and 697146 and 649942
same,% inhibition (ACE Inhibitor Assay),"inhibitor 0.0195 μM, replicates A-D, 0.0195 µM",22.97% and 18.85% and 24.38%
same,fluorescence reading (ACE Inhibitor Assay),"inhibitor 0.039 μM, replicates A-D",555538 and 591749 and 454421 and 628809
same,% inhibition (ACE Inhibitor Assay),"inhibitor 0.039 μM, replicates A-D, 0.039 µM",35.44% and 31.2% and 47.3% and 26.86%
same,fluorescence reading (ACE Inhibitor Assay),"inhibitor 0.078 μM, replicates A-D",487053 and 445495 and 462323 and 446174
same,% inhibition (ACE Inhibitor Assay),"inhibitor 0.078 μM, replicates A-D, 0.078 µM",48.35% and 46.37% and 48.26%
same,fluorescence reading (ACE Inhibitor Assay),"inhibitor 0.15625 μM, replicates A-D",317736 and 311280 and 262186 and 309352
same,% inhibition (ACE Inhibitor Assay),"inhibitor 0.15625 μM, replicates A-D, 0.15625 µM",64.08% and 69.83% and 64.3%
same,fluorescence reading (ACE Inhibitor Assay),"inhibitor 0.3125 μM, replicates A-D",143514 and 147997 and 149103 and 141700
same,% inhibition (ACE Inhibitor Assay),"inhibitor 0.3125 μM, replicates A-D, 0.3125 µM",83.22% and 83.09% and 83.96%
same,fluorescence reading (ACE Inhibitor Assay),"inhibitor 0.625 μM, replicates A-D",60333 and 60929 and 57514 and 55616
same,% inhibition (ACE Inhibitor Assay),"inhibitor 0.625 μM, replicates A-D, 0.625 µM",93.43% and 93.82% and 94.05%
same,fluorescence reading (ACE Inhibitor Assay),"inhibitor 1.25 μM, replicates A-D",27485 and 26994 and 27156 and 25833
same,% inhibition (ACE Inhibitor Assay),"inhibitor 1.25 μM, replicates A-D, 1.25 µM",97.4% and 97.38% and 97.54%
same,fluorescence reading (ACE Inhibitor Assay),"inhibitor 2.5 μM, replicates A-D",13903 and 14148 and 15119 and 13979
same,% inhibition (ACE Inhibitor Assay),"inhibitor 2.5 μM, replicates A-D, 2.5 µM",98.91% and 98.79% and 98.93%
same,fluorescence reading (ACE Inhibitor Assay),"inhibitor 5 μM, replicates A-D",9634 and 9626 and 9656 and 10561
same,% inhibition (ACE Inhibitor Assay),"inhibitor 5 μM, replicates A-D, 5 µM",99.33%
same,inhibition at 0.0195 µM,"read-out: % inhibition (ACE Inhibitor Assay), inhibitor 0.0195 μM, replicates A-D",24.2%
same,inhibition at 0.078 µM,"read-out: % inhibition (ACE Inhibitor Assay), inhibitor 0.078 μM, replicates A-D",43.5%
same,inhibition at 0.15625 µM,"read-out: % inhibition (ACE Inhibitor Assay), inhibitor 0.15625 μM, replicates A-D",63.3%
same,inhibition at 0.3125 µM,"read-out: % inhibition (ACE Inhibitor Assay), inhibitor 0.3125 μM, replicates A-D",83.8%
same,inhibition at 0.625 µM,"read-out: % inhibition (ACE Inhibitor Assay), inhibitor 0.625 μM, replicates A-D",93.5%
same,inhibition at 1.25 µM,"read-out: % inhibition (ACE Inhibitor Assay), inhibitor 1.25 μM, replicates A-D",97.3%
same,inhibition at 2.5 µM,"read-out: % inhibition (ACE Inhibitor Assay), inhibitor 2.5 μM, replicates A-D",98.9%
same,inhibition at 5 µM,"read-out: % inhibition (ACE Inhibitor Assay), inhibitor 5 μM, replicates A-D",99.4%
CC(C)C[C@H](NC(=O)[C@@H]1CCCN1C(=O)[C@@H](N)CO)C(=O)N1CCC[C@H]1C(=O)N[C@@H](CCC(=O)O)C(=O)N[C@H](C(=O)N1CCC[C@H]1C(=O)N1CCC[C@H]1C(=O)O)C(C)C [Peptide S547],IC50,"ACE from pig kidney, determined graphically, read-out: IC50-value (ACE inhibition)",27 µM
same,fluorescence reading (ACE Inhibitor Assay),"inhibitor 0.39 μM, replicates A-D",968576 and 976911 and 1033152 and 933502
same,% inhibition (ACE Inhibitor Assay),"inhibitor 0.39 μM, replicates A-D, 0.39 µM",6.82% and 6.02% and 0.575% and 10.22%
same,fluorescence reading (ACE Inhibitor Assay),[1],935415 and 959358 and 928034 and 939702
same,inhibition at 0.78125 µM,[1],10%
same,% inhibition (ACE Inhibitor Assay),"inhibitor 0.78125 μM, replicates A-D, 0.78125 µM",7.72% and 10.75% and 9.62%
same,fluorescence reading (ACE Inhibitor Assay),[2],885259 and 942952 and 905782 and 900439
same,inhibition at 1.5625 µM,[2],14.9%
same,% inhibition (ACE Inhibitor Assay),"inhibitor 1.5625 μM, replicates A-D, 1.5625 µM",9.3% and 12.9% and 13.42%
same,fluorescence reading (ACE Inhibitor Assay),[3],853233 and 874120 and 919377 and 814056
same,inhibition at 3.125 µM,[3],18%
same,% inhibition (ACE Inhibitor Assay),"inhibitor 3.125 μM, replicates A-D, 3.125 µM",15.96% and 11.6% and 21.78%
same,fluorescence reading (ACE Inhibitor Assay),[4],737068 and 749780 and 773384 and 715138
same,inhibition at 6.25 µM,[4],29.2%
same,% inhibition (ACE Inhibitor Assay),"inhibitor 6.25 μM, replicates A-D, 6.25 µM",28% and 25.72% and 31.35%
same,fluorescence reading (ACE Inhibitor Assay),[5],661504 and 674042 and 682861 and 660883
same,inhibition at 12.5 µM,[5],36.5%
same,% inhibition (ACE Inhibitor Assay),"inhibitor 12.5 μM, replicates A-D, 12.5 µM",35.33% and 34.48% and 36.6%
same,fluorescence reading (ACE Inhibitor Assay),[6],561516 and 529553 and 559590 and 501835
same,inhibition at 25 µM,[6],46.2%
same,% inhibition (ACE Inhibitor Assay),"inhibitor 25 μM, replicates A-D, 25 µM",49.3% and 46.4% and 52%
same,fluorescence reading (ACE Inhibitor Assay),[7],367055 and 382045 and 460226 and 346051
same,inhibition at 50 µM,[7],65%
same,% inhibition (ACE Inhibitor Assay),"inhibitor 50 μM, replicates A-D, 50 µM",63.59% and 56.02% and 67.07%
same,fluorescence reading (ACE Inhibitor Assay),[8],229409 and 229360 and 232610 and 214324
same,inhibition at 100 µM,[8],78.4%
same,% inhibition (ACE Inhibitor Assay),"inhibitor 100 μM, replicates A-D, 100 µM",78.05% and 79.82%
same,fluorescence reading (ACE Inhibitor Assay),[9],115847 and 125213 and 123605 and 113488
same,inhibition at 200 µM,[9],89.4%
same,% inhibition (ACE Inhibitor Assay),"inhibitor 200 μM, replicates A-D, 200 µM",88.45% and 88.6% and 89.58%
CC[C@H](C)[C@H](NC(=O)[C@H](CC(C)C)NC(=O)[C@@H]1CCCN1C(=O)[C@H](CCSC)NC(=O)[C@@H]1CCC(=O)N1)C(=O)N1CCC[C@H]1C(=O)N[C@@H](CCCNC(=N)N)C(=O)N[C@@H](C)C(=O)N[C@@H](CO)C(=O)N[C@@H](CC(=O)O)C(=O)N[C@@H](CCC(=O)O)C(=O)N[C@@H](CC(N)=O)C(=O)N[C@H](C(=O)N1CCC[C@H]1C(=O)N1CCC[C@H]1C(=O)O)C(C)C [Peptide S682] ([pGlu]MPLIPRASDENVPP-OH),IC50,,150 µM
